One assay addresses T1, PRMT5 (Homo sapiens, UniProt O14744).
T1 construct: made in house
Nature of the assay: MTase-Glo methyltransferase IC50 assay, PRMT5. The format is biochemical. The following applies: 200 nM PRMT5, AcH4-21 substrate 225 μM. As to the method: (§1) The IC50 value for the peptoid inhibitors were measured using the MTase-Glo methyltransferase assay kit (Promega). The peptoid was incubated in assay buffer (20 mM Tris-HCl pH 8.0, 50 mM NaCl, 1 mM EDTA, 3 mM MgCl2, 0.1 mg/ml BSA, 1 mM DTT) and […] (0–1000 μM). After a preincubation of 10 min, 200 nM PRMT1 or PRMT5 was added to the assay before adding in the substrate (AcH4-21) at 225 μM. After 15 min, the reaction was quenched with 0.5% TFA (0.1% final concentration), vortexed, and incubated for an additional 10 min. To detect product formation, the MTase-Glo reagent was added for 30 min at rt, followed by addition of the MTase-Glo detection solution for an additional 30 min. Finally, the luminescence signal was measured using a BioTek Synergy two multi-mode microplate reader. The values were converted to product concentration using a standard curve of SAH (0–5 μM). The IC50 values were determined using Equation 1 and fit to a curve using GraFit 7.03.(1) FractionalactivityofPRMT=1/(1+([I]/IC50)) IC50 is the concentration of inhibitor resulting in 50% PRMT activity, and [I] is the inhibitor concentration.

In the next assay the target is T2, PRMT1 (Homo sapiens, UniProt Q99873).
T2 construct: made in house
The assay is described as follows: MTase-Glo methyltransferase IC50 assay, PRMT1. The format is biochemical. The following applies: for IC50: 200 nM PRMT1, AcH4-21 substrate 225 μM. As to the method: as §1

“And” between values parts separate entries of the source, which are not always exact repeats. Equal values may be shown once. *1 amine or outer side, *2 acyl side, *3 side chain or, on linkers, in order; H or OH if unused. Where a SMILES comes first, the peptide text is derived from it. [ ]: non-standard residue; d: D form. X2 = N=C(CCl)NCCC[C@H](N[*:1])C(=O)[*:2]; X1 = N=C(CCl)NCCCN(CC(=O)[*:2])[*:1]; Gly(N-CH2CH2OH) = O=C(O)CNCCO; Nleu = CC(C)CNCC(=O)O; Nlys = NCCCCNCC(=O)O; Sar = CNCC(=O)O

T2 sequence (Q99873 1-353 isoform Q99873-3, species assumed): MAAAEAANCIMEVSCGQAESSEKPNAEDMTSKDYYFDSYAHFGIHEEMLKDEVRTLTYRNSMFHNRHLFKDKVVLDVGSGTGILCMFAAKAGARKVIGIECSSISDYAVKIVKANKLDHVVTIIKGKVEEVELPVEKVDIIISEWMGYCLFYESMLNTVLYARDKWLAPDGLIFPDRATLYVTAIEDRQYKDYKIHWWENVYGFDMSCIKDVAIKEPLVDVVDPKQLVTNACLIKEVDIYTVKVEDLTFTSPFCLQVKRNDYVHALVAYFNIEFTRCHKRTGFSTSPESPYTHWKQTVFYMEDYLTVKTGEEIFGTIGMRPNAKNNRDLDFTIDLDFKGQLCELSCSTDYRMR
T1 sequence (O14744 whole entry, species assumed): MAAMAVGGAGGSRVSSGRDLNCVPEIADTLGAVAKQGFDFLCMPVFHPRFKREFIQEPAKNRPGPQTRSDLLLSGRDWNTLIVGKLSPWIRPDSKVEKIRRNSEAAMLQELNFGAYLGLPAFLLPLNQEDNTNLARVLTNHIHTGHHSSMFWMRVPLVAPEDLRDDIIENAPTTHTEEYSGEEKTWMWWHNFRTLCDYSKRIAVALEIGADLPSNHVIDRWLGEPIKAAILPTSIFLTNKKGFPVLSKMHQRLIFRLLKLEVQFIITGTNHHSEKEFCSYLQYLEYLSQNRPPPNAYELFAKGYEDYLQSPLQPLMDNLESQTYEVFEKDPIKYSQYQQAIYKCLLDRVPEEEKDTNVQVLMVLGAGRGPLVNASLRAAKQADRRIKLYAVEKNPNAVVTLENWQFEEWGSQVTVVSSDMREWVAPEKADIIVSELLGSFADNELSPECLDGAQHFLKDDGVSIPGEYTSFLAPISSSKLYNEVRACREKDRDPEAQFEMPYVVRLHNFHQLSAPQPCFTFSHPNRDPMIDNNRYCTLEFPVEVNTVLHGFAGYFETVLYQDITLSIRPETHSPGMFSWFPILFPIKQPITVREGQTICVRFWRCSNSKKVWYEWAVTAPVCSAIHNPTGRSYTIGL

In general, IC50 refers to the midpoint of a concentration-inhibition curve. For the compound `CC(=O)N(CCO)CC(=O)NCC(=O)N(CCCNC(=N)CCl)CC(=O)NCC(=O)N(CCCCN)CC(=O)NCC(=O)NCC(=O)N(CCCCN)CC(=O)NCC(=O)N(CC(=O)NCC(=O)N(CCCCN)CC(=O)NCC(=O)NCC(=O)N(C)CC(=O)N(CCCCN)CC(N)=O)CC(C)C` [compound P2A] (Ac-[Gly(N-CH2CH2OH)]G[X1]G[Nlys]GG[Nlys]G[Nleu]G[Nlys]GG[Sar][Nlys]-NH2), the IC50 at PRMT5 is above 500 µM.
For the compound `CC(C)C[C@H](NC(=O)CNC(=O)[C@H](CCCCN)NC(=O)CNC(=O)CNC(=O)[C@H](CCCCN)NC(=O)CNC(=O)[C@H](CCCNC(=N)CCl)NC(=O)CNC(=O)[C@@H](N)CO)C(=O)NCC(=O)N[C@@H](CCCCN)C(=O)NCC(=O)NCC(=O)N[C@@H](C)C(=O)N[C@@H](CCCCN)C(N)=O` [Compound P2 Peptide] (H-SG[X2]GKGGKGLGKGGAK-NH2; N-terminus and C-terminus assumed), at PRMT1, the IC50 was found to be 29.6 ± 5.16 µM.
For `CC(=O)N[C@@H](CO)C(=O)NCC(=O)N[C@@H](CCCNC(=N)CCl)C(=O)NCC(=O)N[C@@H](CCCCN)C(=O)NCC(=O)NCC(=O)N[C@@H](CCCCN)C(=O)NCC(=O)N[C@@H](CC(C)C)C(=O)NCC(=O)N[C@@H](CCCCN)C(=O)NCC(=O)NCC(=O)N[C@@H](C)C(=O)N[C@@H](CCCCN)C(N)=O` [AcH4-16 warhead peptide] (Ac-SG[X2]GKGGKGLGKGGAK-NH2; C-terminus assumed), the IC50 at PRMT1 amounted to 46.9 ± 4.86 µM.
Take `CC(C)CN(CC(=O)NCC(=O)N(CCCCN)CC(=O)NCC(=O)NCC(=O)N(C)CC(=O)N(CCCCN)CC(N)=O)C(=O)CNC(=O)CN(CCCCN)C(=O)CNC(=O)CNC(=O)CN(CCCCN)C(=O)CNC(=O)CN(CCCNC(=N)CCl)C(=O)CNC(=O)CNCCO` [compound P2] (H-[Gly(N-CH2CH2OH)]G[X1]G[Nlys]GG[Nlys]G[Nleu]G[Nlys]GG[Sar][Nlys]-NH2): the IC50 is above 500 µM on PRMT5 and 8.73 ± 0.314 µM at PRMT1. Besides, the “increase in potency (PRMT1 IC50) compared to the non-warhead H4-16 peptoid” value at PRMT1 (warhead peptoid vs corresponding original peptoid) was 45 fold and > 45 fold.

Values taken from paper PMC9307946, “A peptoid-based inhibitor of protein arginine methyltransferase 1 (PRMT1) induces apoptosis and autophagy in cancer cells” (The Journal of Biological Chemistry, 2022).
